# Laboratory results: patent US10751423B2 (Massachusetts Institute of Technology, priority 2016, dated 2020)
# Non-standard residues stand in square brackets, D forms with d. Residues, ends and D or L forms follow the SMILES beside them. *: point of attachment. Dolaproine = CO[C@@H]([C@@H]1CCCN1)[C@@H](C)C(=O)O; Dil = CC[C@H](C)[C@H](NC)[C@@H](CC(=O)O)OC; X1 = C[C@@H](N*)[C@@H](O)c1ccccc1; NMeV = CN[C@H](C(=O)O)C(C)C
# How the values were obtained:
# BCL-2 siRNA = assay: siRNA binding with various platinum species by MALDI-TOF-MS; conditions: 10-fold excess of platinum species
# Procedure: A single-stranded siRNA (UCAGGUACUCAGUCAUCCACATT) (SEQ ID NO: 3) was mixed with OxaPt(II) at a molar ratio of 1:10 in RNAase free water (RNA final concentration: 50 μM; Pt final concentration: 500 μM; total volume: 100 μL). The reaction mixture was placed in a 37° C. incubator and 10 μL of sample were removed at various time points to obtain MALDI-TOF-MS spectra (positive model). Analogous methods were employed to obtain spectra of the reaction products of siRNA with OxaPt(IV), CisPt(II) and CisPt(IV).
# MALDI/TOF MS was used to ascertain the kinetics of platinum-RNA adduct formation using BCL-2 siRNA that was incubated with a 10-fold excess of various platinum(II) or platinum(IV) species. […] AAS measurements of siRNA that had been isolated after co-incubation with various platinum species was conducted to determine the concentration of Pt-siRNA adducts formed over time.
# [1] = photostability under continuous laser irradiation; assay type: physicochemical
# Description: FIG. 31D is a plot showing measurements of the photostability of various emissive components of core-shell nanoparticles under continuous irradiation. Note, the same excitation energies were utilized as in FIG. 31C; and, emission was detected using various excitation and emission filters. The photostability of DiR in THF (DiR in THF; black) was included for comparative purposes.
# In addition to the emission of these extrinsic reporters, bioluminescence due to the luciferaseluciferin reaction and RFP fluorescence upon 535 nm excitation are also included in FIG. 31C, generating a spectral comparison of all reporters that were subsequently utilized for in vivo and ex vivo imaging (vide infra). Prior to embarking on comparisons of in vivo imaging with different reporters, we examined the photostability of each of the emissive components within the core-shell nanoparticles.
# [2] = read-out: in vitro IC50; cited from earlier work
# 5′-GMP = 5′-GMP binding with various platinum species by 1HNMR; conditions: 10 mM 5′-GMP, 5 mM Pt, 37° C.
# Procedure: (10 mM) 5′-GMP and (5 mM) OxaPt(II) were mixed in 700 μL of D2O/H2O (v/v=1:9), transferred to an NMR tube and placed in a 37° C. water bath for various time periods prior to ^1HNMR measurement. […] The binding kinetics of 5′-GMP to each platinum species were determined by measuring the relative amounts of free and Pt-bound 5′-GMP at each time point, integrating the ratio of the ^1HNMR peaks at 8.5 ppm to 8.09 ppm.
# OxaPt(II) and CisPt(II) are known to bind to guanine (G) and adenine (A) bases in both DNA and RNA. […] Formation of Pt-(5′-GMP)2 adducts were subsequently monitored by ESI-MS (FIG. 4A and FIG. 4B) and by MALDI/TOF MS (data not shown). Differences in the kinetics of adduct formation by various platinum(II) and platinum(IV) species were subsequently studied by ^1H NMR spectroscopy under similar conditions.
compound,measurement,setting,value
"N.N.[Cl][Pt][Cl] [CisPt(II), cisplatin]",time at which Pt-siRNA adducts could be detected,BCL-2 siRNA,≤ 30 m
"CCCCCCCCCCCCCCCCCCN1C(=CC=CC=CC=CC2=[N+](CCCCCCCCCCCCCCCCCC)c3ccccc3C2(C)C)C(C)(C)c2ccccc21.[I-] [DiR, 1,1′-dioctadecyl-3,3,3′,3′-tetramethylindotricarbocyanine iodide]",initial emission intensity maintained,"[1]; DiR incorporated within the PCL shell of the nanoparticles, 1 h",88%
same,fluorescence decrease,"[1]; free DiR in THF, 1 h of continuous excitation",over 30%
"CC[C@H](C)[C@@H]([C@@H](CC(=O)N1CCC[C@H]1[C@H](OC)[C@@H](C)C(=O)N[C@H](C)[C@@H](O)c1ccccc1)OC)N(C)C(=O)[C@@H](NC(=O)[C@@H](NC)C(C)C)C(C)C [MMAE, monomethyl auristatin E] (H-[NMeV]V[Dil][Dolaproine]-X1)",IC50,[2],0.2 to 0.6 nM
"O=C1[O][Pt]2([NH][C@@H]3CCCC[C@H]3[NH]2)[O]C1=O [OxaPt(II), Oxaliplatin]",DACHPt(5′-GMP)2 adducts as share of the 5′-GMP pool,5′-GMP; 30 m incubation,approximately 10%
same,DACHPt(5′-GMP)2 adducts as share of the 5′-GMP pool,5′-GMP; 6 h incubation,> 40%
same,time at which Pt-siRNA adducts could be detected,BCL-2 siRNA,1 h
